From ChEMBL document CHEMBL1201862, “PubChem BioAssay data set” (2004)
Calls of active or inactive are those of the source.

Assays:
[1] = rise of 2N DNA cells, HeLa – IC50, dose response (AID 1117349); type: functional, cell-based
[2] = CellTiter-Glo luminescence survival assay, SW480 colon tumor line, concentration-response curve, half-maximal inhibitory concentration (AID 1117338); type: functional
[3] = IC50 of insulin release inhibition, rat insulinoma INS-1E line, 5 mM glucose, cell-based (AID 1117331); type: functional
[4] = RKO cell viability reduction, dose response, CellTiter-Glo luminescence (AID 1117322); type: functional
[5] = cytotoxicity toward HCT116 cells – cell-based, CellTiter-Glo luminescence, IC50, dose response (AID 1117332); type: functional; details: HCT-116
[6] = SNU-C1 cell viability reduction, dose response, CellTiter-Glo luminescence (AID 1117323); type: functional, cell-based
[7] = glucagon-like peptide-1 release potency in STC-1, concentration-response, half-maximal inhibitory concentration in the STC-1 line (AID 1117345); type: functional, cell-based
[8] = cytotoxicity toward Colo320 cells – cell-based, CellTiter-Glo luminescence, IC50, dose response (AID 1117334); type: functional; details: COLO 320
[9] = rise of 4N DNA cells, HeLa – IC50, dose response (AID 1117351); type: functional, cell-based
[10] = cytotoxicity toward HT-29 cells – cell-based, CellTiter-Glo luminescence, IC50, dose response (AID 1117330); type: functional
[11] = Reduced DLD-1 viability, concentration-response, CellTiter-Glo luminescence (AID 1117352); type: functional
[12] = HCT116 cell viability decrease, GSK3B pretreatment – CellTiter-Glo, IC50, dose response (AID 1117339); type: functional; details: HCT-116
[13] = Potency on glucagon-like peptide 1 release, dose-response in NCI-H716 cell line, half maximal inhibitory concentration (AID 1117344); type: functional, cell-based
Paired box protein Pax-8 = Paired box protein Pax-8 (Homo sapiens, UniProt Q06710); assay: PAX8 transcriptional activity inhibition in RMG-I – RMG-I cells, luciferase, cherry-pick, dose response (AID 687027); type: functional, cell-based;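 also: luciferase reporter driven by Pax8 target thyroperoxidase promoter measured by SteadyGlo luminescence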
[14] = OVCAR-3 cell viability loss – plate reader, dry powder samples, PAX8 inhibitor project, dose response (AID 743044); type: functional, cell-based
[15] = general cell-killing toxicity readout – plate reader, dry powder samples, cytotoxicity control for PAX8 inhibitor project, dose response (AID 743021); type: functional, cell-based
[16] = OVCAR8 cell viability loss – plate reader, dry powder samples, PAX8 project, dose response (AID 743197); type: functional, cell-based; details: OVCAR-8
[17] = growth inhibition of yeast DHODH-expressing 3D7 parasites – SYBR Green, dry powder samples, dose response (AID 1159570); type: functional, cell-based;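 also: parasite growth measured after 72 hours of compound exposure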
[18] = toxicity to human HepG2 hepatoma cells – cell-based, plate reader, dry powder samples, cytotoxicity control, dose response (AID 1159569); type: functional;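 also: inhibitor potency with signal falling toward the positive control level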
[19] = P. falciparum Dd2 growth inhibitors, dose response, SYBR Green, cherry-picked samples (AID 1159567); type: functional, cell-based
[20] = Dd2 malaria parasite growth inhibition potency – SYBR Green, dry powder samples, dose response (AID 1159566); type: functional, cell-based;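 also: potency for growth inhibition with lower SYBR green DNA signal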
[21] = toxicity to human hepatoma HepG2 cells – cell-based, cherry-picked samples, cytotoxicity control, dose response (AID 1159577); type: functional
[22] = growth inhibition of PfATP4-mutant resistant parasites – NITD609-resistant line, SYBR Green, dry powder, dose response (AID 1159571); type: functional, cell-based;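 also: parasites synchronized at ring stage by sorbitol before testing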
[23] = biological target: T1, Low molecular weight phosphotyrosine protein phosphatase (Homo sapiens, UniProt P24666); assay: inhibition of LMPTP-A enzymatic activity – biochemical, OMFP substrate, fluorescence intensity, set 2, dose response (AID 743307); type: functional
[24] = biological target: T1, Low molecular weight phosphotyrosine protein phosphatase; assay: inhibition of human LMPTP enzyme activity – biochemical, absorbance, pNPP substrate, LMPTP-A isoform, set 2, orthogonal assay, dose response (AID 743308); type: functional
[25] = biological target: NAD-dependent protein deacylase sirtuin-5, mitochondrial (Homo sapiens, UniProt Q9NXA8); assay: blockers of sirtuin-5 peptide desuccinylation – biochemical, fluorescence imaging, cherry-pick, set 6, dose response (AID 720597)
[26] = viability loss in THP-1 monocytes – THP-1 cells, cytotoxicity control for Vif-APOBEC3G degradation inhibitor project, dose response (AID 1117359); type: functional; details: THP-1
[27] = biological target: RNA-editing ligase 1, mitochondrial (Trypanosoma brucei brucei, UniProt P86926); assay: inhibition of trypanosome RNA editing ligase – biochemical, fluorescence, Trypanosoma brucei, dose response (AID 1117295); type: functional
[28] = toxicity to A549 lung cells – cell-based, plate reader, dry powder, set 6, cytotoxicity control, dose response (AID 743312); type: functional
[29] = A2780 cell killing – plate reader, dry powder samples, cytotoxicity control, dose response (AID 743046); type: functional, cell-based
[30] = IGROV1 cell killing – plate reader, dry powder samples, PAX8 inhibitor project, dose response (AID 743043); type: functional, cell-based; details: IGROV-1
[31] = cytotoxicity in MITF-independent A375 cells – cell-based, CellTiter-Glo luminescence, dry powder, set 4, counter-screen for MITF inhibitor project, dose response (AID 624364); type: functional; details: A-375;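 also: A375 melanoma cells are MITF independent so this is a counter screen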
[32] = viability loss in MITF-independent A375 cells – cell-based, CellTiter-Glo luminescence, dry powder, set 2, counter-screen for MITF inhibitor project, dose response (AID 624489); type: functional; details: A-375;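 also: actives are compounds lowering A375 viability meaning general cytotoxicity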

T1 sequence (P24666 whole entry, canonical isoform): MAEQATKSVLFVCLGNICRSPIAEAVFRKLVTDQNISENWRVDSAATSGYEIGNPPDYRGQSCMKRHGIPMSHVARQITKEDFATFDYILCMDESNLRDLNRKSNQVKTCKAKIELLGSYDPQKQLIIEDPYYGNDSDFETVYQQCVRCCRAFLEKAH
Paired box protein Pax-8, sequence (Q06710 whole entry): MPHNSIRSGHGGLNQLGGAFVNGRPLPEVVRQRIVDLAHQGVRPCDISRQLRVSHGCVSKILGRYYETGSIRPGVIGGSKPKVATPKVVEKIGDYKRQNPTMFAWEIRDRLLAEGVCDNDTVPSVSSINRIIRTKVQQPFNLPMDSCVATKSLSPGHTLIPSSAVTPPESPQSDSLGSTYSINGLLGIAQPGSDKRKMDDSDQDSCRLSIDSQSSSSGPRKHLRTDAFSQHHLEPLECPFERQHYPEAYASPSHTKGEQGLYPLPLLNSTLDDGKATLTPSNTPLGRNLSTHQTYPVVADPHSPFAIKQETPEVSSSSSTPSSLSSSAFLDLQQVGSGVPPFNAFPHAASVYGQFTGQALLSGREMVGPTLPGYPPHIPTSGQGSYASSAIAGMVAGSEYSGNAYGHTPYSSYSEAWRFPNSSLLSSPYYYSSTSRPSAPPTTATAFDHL
NAD-dependent protein deacylase sirtuin-5, mitochondrial, sequence (Q9NXA8 whole entry): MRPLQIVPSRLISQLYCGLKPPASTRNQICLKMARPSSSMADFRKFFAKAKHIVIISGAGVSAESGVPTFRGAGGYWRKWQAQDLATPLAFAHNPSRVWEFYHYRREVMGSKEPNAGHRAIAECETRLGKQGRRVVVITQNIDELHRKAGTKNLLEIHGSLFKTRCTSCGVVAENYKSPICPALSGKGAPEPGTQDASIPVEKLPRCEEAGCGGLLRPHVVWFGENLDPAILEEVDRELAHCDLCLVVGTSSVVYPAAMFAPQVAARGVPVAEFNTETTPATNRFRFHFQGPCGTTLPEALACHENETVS
RNA-editing ligase 1, mitochondrial, sequence (P86926 whole entry): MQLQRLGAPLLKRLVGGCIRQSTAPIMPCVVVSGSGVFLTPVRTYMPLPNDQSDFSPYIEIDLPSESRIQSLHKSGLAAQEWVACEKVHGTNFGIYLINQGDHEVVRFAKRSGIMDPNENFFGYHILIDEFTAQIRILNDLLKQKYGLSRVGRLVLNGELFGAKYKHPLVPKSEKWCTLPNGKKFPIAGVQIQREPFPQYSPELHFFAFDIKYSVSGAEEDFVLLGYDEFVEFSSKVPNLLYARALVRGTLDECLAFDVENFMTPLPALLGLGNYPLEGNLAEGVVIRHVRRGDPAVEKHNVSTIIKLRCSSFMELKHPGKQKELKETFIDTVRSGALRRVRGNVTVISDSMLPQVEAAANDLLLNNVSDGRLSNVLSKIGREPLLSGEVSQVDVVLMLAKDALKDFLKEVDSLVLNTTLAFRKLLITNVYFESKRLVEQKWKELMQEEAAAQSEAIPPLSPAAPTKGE

In the case of CN1CCCC(CC2c3ccccc3Sc3ccccc32)C1 (configuration not stated), the IC50 [1] is reported as > 10 µM (inactive), the IC50 [2] is reported as 4.7 µM (active) and the IC50 [3] is reported as > 11.1 µM (inactive). For the same compound, the IC50 [4] was 3.49 µM (active), the IC50 [5] was > 20 µM (inactive) and the IC50 [6] was 15.1 µM (inactive). For the same compound, the IC50 [7] was > 40 µM (inactive), the IC50 [8] was > 20 µM (inactive) and the IC50 [9] was > 10 µM (inactive). For the same compound, the IC50 [10] was 6.43 µM (inactive), the IC50 [11] was > 20 µM (inactive) and the IC50 [12] was 8.68 µM (inactive). For the same compound, the IC50 [13] was > 40 µM (inactive).
In the case of Cc1cccc(-c2ccc([C@H]3[C@H]4CN(S(=O)(=O)c5cccc(C)c5)CCCCN4[C@H]3CO)cc2)c1, the AC50 (Paired box protein Pax-8) is reported as 7.45 µM (active), the AC50 [14] is reported as 43.5 µM (active) and the AC50 [15] is reported as 67.1 µM (active). For the same compound, the AC50 [16] was 44.6 µM (active), the AC50 [17] was 2.07 µM (active) and the AC50 [18] was > 100 µM (inactive). For the same compound, the AC50 [19] was 2.62 µM (active), the AC50 [20] was 1.19 µM (active) and the AC50 [21] was > 39 µM (inactive). For the same compound, the AC50 [22] was 1.42 µM (active).
With Fc1ccc(-c2cc(NCCCN3CCCCC3)c3ccccc3n2)cc1 the IC50 [23] was 1.4 µM (active) and the IC50 [24] was 3.27 µM (active).
In the case of Cc1noc(C)c1S(=O)(=O)Nc1ccc2c(c1)C(=O)N([C@@H](C)CO)C[C@H](C)[C@@H](CN(C)Cc1ccc(C(F)(F)F)cc1)OCCCC[C@H](C)O2, the AC50 [25] is reported as 12.2 µM (active) and the CC50 [26] is reported as 16.7 µM (active).
In the case of COC(=O)C1=C(C)N(Cc2ccc(C(F)(F)F)cc2)C(NCc2ccccc2C(F)(F)F)=NC1c1cccc(Cl)c1 (configuration not stated), the IC50 [27] is reported as > 96.6 µM (inactive).
With Cc1ccc(C(C)C)c(OCCn2c(S)nc3ccccc32)c1 the AC50 [28] was 22 µM (active).
With C[C@@H]1CN([C@H](C)CO)C(=O)c2cc(NC(=O)Nc3ccc(C(F)(F)F)cc3)ccc2O[C@@H](C)CCCCO[C@@H]1CN(C)Cc1ccccc1 the AC50 (Paired box protein Pax-8) was 6.4 µM (active), the AC50 [29] was 22.3 µM (active) and the AC50 [14] was 23 µM (active). The AC50 [30] was 40.2 µM (active), the AC50 [15] was 68 µM (active) and the AC50 [16] was 21.5 µM (active).
With CCN1CCN(C2=C(NC(=O)c3ccc(Br)cc3)C(=O)c3ccccc3C2=O)CC1 the AC50 [31] was 15.2 µM (active) and the AC50 [32] was 6.71 µM (active).
